“Also recorded” adds a separate entry of the source. Square brackets hold non-standard residues; d marks the D form. Peptide text beside a SMILES is read from it. * marks the point of attachment. X1 = O=C(O)CN(CCN(CC(=O)O)CC(=O)O)CCN(CC(=O)O)CC(=O)NCCCOCCOCCOCCCNC(=O)COCC(=O)*; Nle = CCCC[C@H](N)C(=O)O
What was measured:
hMC4R [1] = biological target: T1, hMC4R (Homo sapiens, UniProt P32245); experiment: Competitive binding assay against TRF probe 19, six-well plate protocol; conditions: for inhibition of the binding and uptake of probe 19: over the concentration range tested (10 μM–0.10 nM), probe 19 20 nM; for Relative Potency: compared to the monovalent MSH(4) construct with the same scaffold core; for Ki lower than / inhibition higher than the corresponding monovalent molecule: divalent versus monovalent, against probe 19
T1 sequence (P32245 whole entry): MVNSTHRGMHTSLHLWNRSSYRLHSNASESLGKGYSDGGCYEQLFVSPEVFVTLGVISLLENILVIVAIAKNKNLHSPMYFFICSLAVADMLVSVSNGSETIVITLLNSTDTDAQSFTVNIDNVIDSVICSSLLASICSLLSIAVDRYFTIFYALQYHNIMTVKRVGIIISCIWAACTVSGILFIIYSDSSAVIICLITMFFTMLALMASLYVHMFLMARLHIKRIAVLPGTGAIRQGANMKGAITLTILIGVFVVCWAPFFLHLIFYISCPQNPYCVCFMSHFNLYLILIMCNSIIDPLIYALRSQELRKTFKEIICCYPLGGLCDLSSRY

hMC4R [2] = biological target: T1, hMC4R; conditions: saturation binding assays using older protocol (96-well plates); ref [14]; cited from earlier work

Structure (SMILES) | Ki (hMC4R [1]) [nM] | Relative Potency (hMC4R [1]) | Ki lower than / inhibition higher than the corresponding monovalent molecule (hMC4R [1]) [fold] | inhibition of the binding and uptake of probe 19 (hMC4R [1]) | Kd (hMC4R [2]) [nM]
NC(=O)[C@H](CO)NC(=O)CCCCCn1cc(COc2cc(OCc3cn(CCCCCC(=O)N[C@@H](CO)C(N)=O)nn3)cc(OCc3cn(CCCCCC(=O)N[C@@H](CO)C(N)=O)nn3)c2)nn1 [Compound 12a, 6,6′,6″-(4,4′,4″-((Benzene-1,3,5-triyltris(oxy))tris(methylene))tris(1H-1,2,3-triazole-4,1-diyl))tris(N-((S)-1-amino-3-hydroxy-1-oxopropan-2-yl)hexanamide)] | – | – | – | did not inhibit; also recorded: not competitive inhibitors | –
N=C(N)NCCC[C@H](NC(=O)[C@@H](Cc1ccccc1)NC(=O)[C@H](Cc1c[nH]cn1)NC(=O)CCCCCn1cc(COc2cc(OCc3cn(CCCCCC(=O)N[C@@H](CO)C(N)=O)nn3)cc(OCc3cn(CCCCCC(=O)N[C@@H](CO)C(N)=O)nn3)c2)nn1)C(=O)N[C@@H](Cc1c[nH]c2ccccc12)C(N)=O [Compound 14a, 6,6′-(4,4′-(((5-((1-((6S,9R,12S)-12-((1H-Imidazol-4-yl)methyl)-1-amino-6-(((S)-1-amino-3-(1H-indol-3-yl)-1-oxopropan-2-yl)carbamoyl)-9-benzyl-1-imino-8,11,14-trioxo-2,7,10,13-tetraazanonadecan-19-yl)-1H-1,2,3-triazol-4-yl)methoxy)-1,3-phenylene)bis(oxy))bis(methylene))bis(1H-1,2,3-triazole-4,1-diyl))bis(N-(1-amino-3-hydroxy-1-oxopropan-2-yl)hexanamide)] | 990 ± 140 | 1 | – | – | –
CCCC[C@H](NC(=O)[C@H](CO)NC(=O)COCC(=O)NCCCOCCOCCOCCCNC(=O)CN(CCN(CCN(CC(=O)O)CC(=O)O)CC(=O)O)CC(=O)O)C(=O)N[C@@H](CCC(=O)O)C(=O)N[C@@H](Cc1c[nH]cn1)C(=O)N[C@H](Cc1ccccc1)C(=O)N[C@@H](CCCNC(=N)N)C(=O)N[C@@H](Cc1c[nH]c2ccccc12)C(N)=O [Compound 19, Eu-DTPA-PEGO-MSH(7)-NH2] (X1-S[Nle]EH[dF]RW-NH2) | – | – | – | – | 27 ± 4
NC(=O)[C@H](CO)NC(=O)CCCCCn1cc(CN(Cc2cn(CCCCCC(=O)N[C@@H](CO)C(N)=O)nn2)Cc2cn(CCCCCC(=O)N[C@@H](CO)C(N)=O)nn2)nn1 [Compound 15a, 6,6′,6″-(4,4′,4″-(Nitrilotris(methylene))tris(1H-1,2,3-triazole-4,1-diyl))tris(N-((S)-1-amino-3-hydroxy-1-oxopropan-2-yl)hexanamide)] | – | – | – | did not inhibit; also recorded: not competitive inhibitors | –

Second part, led by results:

Ki (hMC4R [1]) [nM] | Relative Potency (hMC4R [1]) | Ki lower than / inhibition higher than the corresponding monovalent molecule (hMC4R [1]) [fold] | Structure (SMILES) | inhibition of the binding and uptake of probe 19 (hMC4R [1]) | Kd (hMC4R [2]) [nM]
25 ± 4 | – | – | N=C(N)NCCC[C@H](NC(=O)[C@@H](Cc1ccccc1)NC(=O)[C@H](Cc1c[nH]cn1)NC(=O)CCCCCn1cc(CN2CCN(Cc3cn(CCCCCC(=O)N[C@@H](Cc4c[nH]cn4)C(=O)N[C@H](Cc4ccccc4)C(=O)N[C@@H](CCCNC(=N)N)C(=O)N[C@@H](Cc4c[nH]c5ccccc45)C(N)=O)nn3)CCN(Cc3cn(CCCCCC(=O)N[C@@H](Cc4c[nH]cn4)C(=O)N[C@H](Cc4ccccc4)C(=O)N[C@@H](CCCNC(=N)N)C(=O)N[C@@H](Cc4c[nH]c5ccccc45)C(N)=O)nn3)CC2)nn1)C(=O)N[C@@H](Cc1c[nH]c2ccccc12)C(N)=O [Compound 18, 6,6′,6″-(4,4′,4″-((1,4,7-Triazonane-1,4,7-triyl)tris(methylene))tris(1H-1,2,3-triazole-4,1-diyl))tris(N-((S)-1-(((R)-1-(((S)-1-(((S)-1-amino-3-(1H-indol-3-yl)-1-oxopropan-2-yl)amino)-5-guanidino-1-oxopentan-2-yl)amino)-1-oxo-3-phenylpropan-2-yl)amino)-3-(1H-imidazol-4-yl)-1-oxopropan-2-yl)hexanamide)] | – | –
69 ± 12 | 32 | 32 | N=C(N)NCCC[C@H](NC(=O)[C@@H](Cc1ccccc1)NC(=O)[C@H](Cc1c[nH]cn1)NC(=O)CCCCCn1cc(CN(Cc2cn(CCCCCC(=O)N[C@@H](CO)C(N)=O)nn2)Cc2cn(CCCCCC(=O)N[C@@H](Cc3c[nH]cn3)C(=O)N[C@H](Cc3ccccc3)C(=O)N[C@@H](CCCNC(=N)N)C(=O)N[C@@H](Cc3c[nH]c4ccccc34)C(N)=O)nn2)nn1)C(=O)N[C@@H](Cc1c[nH]c2ccccc12)C(N)=O [Compound 16b, 6,6′-(4,4′-((((1-(6-(((S)-1-Amino-3-hydroxy-1-oxopropan-2-yl)amino)-6-oxohexyl)-1H-1,2,3-triazol-4-yl)methyl)azanediyl)bis(methylene))bis(1H-1,2,3-triazole-4,1-diyl))bis(N-((S)-1-(((R)-1-(((S)-1-(((S)-1-amino-3-(1H-indol-3-yl)-1-oxopropan-2-yl)amino)-5-guanidino-1-oxopentan-2-yl)amino)-1-oxo-3-phenylpropan-2-yl)amino)-3-(1H-imidazol-4-yl)-1-oxopropan-2-yl)hexanamide)] | – | –
36 ± 4 | 61 | – | N=C(N)NCCC[C@H](NC(=O)[C@@H](Cc1ccccc1)NC(=O)[C@H](Cc1c[nH]cn1)NC(=O)CCCCCn1cc(CN(Cc2cn(CCCCCC(=O)N[C@@H](Cc3c[nH]cn3)C(=O)N[C@H](Cc3ccccc3)C(=O)N[C@@H](CCCNC(=N)N)C(=O)N[C@@H](Cc3c[nH]c4ccccc34)C(N)=O)nn2)Cc2cn(CCCCCC(=O)N[C@@H](Cc3c[nH]cn3)C(=O)N[C@H](Cc3ccccc3)C(=O)N[C@@H](CCCNC(=N)N)C(=O)N[C@@H](Cc3c[nH]c4ccccc34)C(N)=O)nn2)nn1)C(=O)N[C@@H](Cc1c[nH]c2ccccc12)C(N)=O [Compound 16c, 6,6′,6″-(4,4′,4″-(Nitrilotris(methylene))tris(1H-1,2,3-triazole-4,1-diyl))tris(N-((S)-1-(((R)-1-(((S)-1-(((S)-1-amino-3-(1H-indol-3-yl)-1-oxopropan-2-yl)amino)-5-guanidino-1-oxopentan-2-yl)amino)-1-oxo-3-phenylpropan-2-yl)amino)-3-(1H-imidazol-4-yl)-1-oxopropan-2-yl)hexanamide)] | – | –
91 ± 13 | 11 | 11 | N=C(N)NCCC[C@H](NC(=O)[C@@H](Cc1ccccc1)NC(=O)[C@H](Cc1c[nH]cn1)NC(=O)CCCCCn1cc(COc2cc(OCc3cn(CCCCCC(=O)N[C@@H](CO)C(N)=O)nn3)cc(OCc3cn(CCCCCC(=O)N[C@@H](Cc4c[nH]cn4)C(=O)N[C@H](Cc4ccccc4)C(=O)N[C@@H](CCCNC(=N)N)C(=O)N[C@@H](Cc4c[nH]c5ccccc45)C(N)=O)nn3)c2)nn1)C(=O)N[C@@H](Cc1c[nH]c2ccccc12)C(N)=O [Compound 14b, 6,6′-(4,4′-(((5-((1-(6-((1-Amino-3-hydroxy-1-oxopropan-2-yl)amino)-6-oxohexyl)-1H-1,2,3-triazol-4-yl)methoxy)-1,3-phenylene)bis(oxy))bis(methylene))bis(1H-1,2,3-triazole-4,1-diyl))bis(N-((S)-1-(((R)-1-(((S)-1-(((S)-1-amino-3-(1H-indol-3-yl)-1-oxopropan-2-yl)amino)-5-guanidino-1-oxopentan-2-yl)amino)-1-oxo-3-phenylpropan-2-yl)amino)-3-(1H-imidazol-4-yl)-1-oxopropan-2-yl)hexanamide)] | – | –

Source: article PMC4780440 (Organic & biomolecular chemistry, 2015)
